In patent US20120035175A1, “Novel salts as Anti-Inflammatory, Immunomodulatory and Anti-Proliferatory Agents” (4SC AG, priority 2010, published 2012):

Columns and labels:
[1] = test system: human lymphocyte cell proliferation; test: Human lymphocyte cell proliferation (FIG. 1 legend); format: cell-based; conditions: concentration of 100 μM
recombinant murine DHODH = biological target: T1, recombinant murine DHODH (Mus musculus, UniProt O35435); test: Inhibition assay of DHODH activity (murine enzyme); format: biochemical; conditions: class symbols, key in nM
T1 construct: Prof; M. Löffler, Marburg, Germany (gift)
Protocol: (§1) The standard assay mixture contained 50 μM decyclo ubichinone, 100 μM dihydroorotate, 60 μM 2,6-dichloroindophenol, as well as 20 mU DHODH. The volume activity of the recombinant enzyme used was 30 U/ml. Measurements were conducted in 50 mM TrisHCl (150 mM KCl, 0.1% Triton X-100, pH 8.0) at 30° C. in a final volume of 1 ml. The components were mixed, and the reaction was started by adding dihydroorotate. The course of reaction was followed by spectrophotometrically measuring the decrease in absorption at 600 nm for […].
(§2) Inhibitory studies were conducted in a standard assay with additional variable amounts of inhibitor. […] These investigations were carried out with recombinant human as well as with recombinant murine DHODH provided by Prof. M. Löffler, Marburg, Germany [M. Löffler, Chem. Biol. Interact.

[2] = test system: Human peripheral blood mononuclear cells (PBMC), T-cell proliferation; test: Proliferation assay of human T-cells (PHA-stimulated PBMC, BrdU ELISA); format: cell-based; conditions: PHA 20 μg/ml, 48 hours
Protocol: Human peripheral blood mononuclear cells (PBMC) were obtained from healthy volunteers and transferred to RPM11640 cell culture medium containing 10% dialyzed fetal calf serum. 80,000 cells per well were pipetted into a 96-well plate and phytohemagglutinin (PHA) was added in phosphate buffered saline to a final concentration of 20 μg/ml to stimulate T-cell proliferation. Vidofludimus was added in dimethyl sulfoxide (DMSO, final concentration: 0.1 Vol %) to final concentrations ranging from 20 nM to 50 μM. After incubation for 48 hours, cell proliferation was quantified using the “cell proliferation ELISA BrdU” (Roche) according to the manufacturer's instructions. […] (see FIG. 1).

[3] = Dynamic vapor sorption (water uptake); format: physicochemical
From the text: DVS (SMS): Surface Measurement Systems Ltd. DVS-1 water vapour sorption analyzer. The sample is placed on a platinum sample pan and allowed to equilibrate at a given relative humidity (r.h.), usually 50% r.h. Then, a pre-defined humidity program was started with a scanning rate of 5% r.h. change per hour. First step: from 50% r.h. to 0% r.h. (in case of a possibly hydrate as starting material 50 to 95% r.h.), second step: from 0% to 95% r.h. (in case of a possibly hydrate as starting material 95 to 0% r.h.)

[4] = Long-term stability, 18 months storage, HPLC; format: physicochemical
Protocol: HPLC: HPLC was performed with a Dionex UltiMate® 3000 liquid chromatograph comprising a solvent Rack, a vacuum degasser, a binary pump (mikro), a static mixer (500 μl), an autosampler, a 25 μl sample loop, a 100 μl syringe, a column oven and a DAD detector (semimicro measuring cell), which was set up for UV analysis. Data analysis was done with Chromeleon® 6.80 SP3. Compounds were separated at 30° C. on a Phenomenex Onyx™ Monolithic C18 50×2 mm column. The injection volume was 2 μl and the detection wavelength was 305 nm. As mobile phase, a gradient of 0.1% formic acid in HPLC grade water/acetonitrile was used, starting at a concentration of 5% acetonitrile. The starting concentration was held for 1 minute, then the gradient was ramped linearly to 95% acetonitrile over the course of 2 min, held for 0.7 min at 95% acetonitrile, after which it was returned to 5% acetonitrile within 0.1 min and kept constant for 0.7 min to re-equilibrate the column. The mobile phase flow rate was 1.5 ml/min.
The compounds were stored for 18 months at ambient conditions (20-25° C., 30-60% relative humidity) and subsequently analysed by HPLC for purity.

recombinant human DHODH = biological target: T2, recombinant human DHODH (Homo sapiens, UniProt Q02127); test: Inhibition assay of DHODH activity (human enzyme); format: biochemical; conditions: recombinant human DHODH; class symbols, key in nM; read-out: human IC50-Value
T2 construct: Prof; M. Löffler, Marburg, Germany (gift)
Protocol: as §1, §2

DHODH = DHODH (Rattus norvegicus, UniProt Q63707); test: Inhibition assay of DHODH activity (column headed 'rate'); format: biochemical; conditions: class symbols, key in nM
Protocol: as §1, §2

T1 sequence (O35435 whole entry): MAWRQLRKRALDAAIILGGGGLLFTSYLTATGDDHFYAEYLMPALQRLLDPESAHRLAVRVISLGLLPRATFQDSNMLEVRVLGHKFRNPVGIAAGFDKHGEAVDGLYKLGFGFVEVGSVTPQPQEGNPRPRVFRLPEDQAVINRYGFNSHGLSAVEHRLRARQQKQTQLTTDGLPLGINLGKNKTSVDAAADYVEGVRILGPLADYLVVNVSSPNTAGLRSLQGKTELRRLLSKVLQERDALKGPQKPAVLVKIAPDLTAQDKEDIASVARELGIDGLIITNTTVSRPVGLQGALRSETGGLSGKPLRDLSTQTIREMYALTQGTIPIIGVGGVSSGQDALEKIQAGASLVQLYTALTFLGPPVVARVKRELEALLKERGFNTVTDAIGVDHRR
T2 sequence (Q02127 whole entry): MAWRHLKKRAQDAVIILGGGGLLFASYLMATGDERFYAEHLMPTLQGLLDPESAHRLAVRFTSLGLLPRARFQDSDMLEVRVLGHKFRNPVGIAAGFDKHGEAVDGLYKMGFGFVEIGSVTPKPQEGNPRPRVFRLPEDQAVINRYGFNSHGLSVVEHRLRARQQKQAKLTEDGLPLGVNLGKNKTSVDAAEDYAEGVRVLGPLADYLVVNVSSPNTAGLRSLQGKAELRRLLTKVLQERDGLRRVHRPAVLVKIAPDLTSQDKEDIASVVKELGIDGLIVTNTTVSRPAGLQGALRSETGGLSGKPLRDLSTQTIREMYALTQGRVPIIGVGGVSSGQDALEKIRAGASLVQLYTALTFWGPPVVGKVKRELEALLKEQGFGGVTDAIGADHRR
Chain of DHODH (Q63707 whole entry): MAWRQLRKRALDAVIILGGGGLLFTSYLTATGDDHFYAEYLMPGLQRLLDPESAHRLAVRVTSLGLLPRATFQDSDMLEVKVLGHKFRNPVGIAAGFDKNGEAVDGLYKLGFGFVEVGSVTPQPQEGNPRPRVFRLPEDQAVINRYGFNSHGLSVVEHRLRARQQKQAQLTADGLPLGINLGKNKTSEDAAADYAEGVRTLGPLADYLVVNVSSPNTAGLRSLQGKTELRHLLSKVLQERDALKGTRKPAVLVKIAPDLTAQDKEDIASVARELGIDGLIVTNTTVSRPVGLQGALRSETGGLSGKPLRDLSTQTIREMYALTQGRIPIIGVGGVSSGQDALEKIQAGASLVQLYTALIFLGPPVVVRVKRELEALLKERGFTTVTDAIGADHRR

O=C(O)C1=C(C(=O)Nc2ccc(-c3ccccc3)cc2)CCC1 [2-(Biphenyl-4-ylcarbamoyl)-cyclopent-1-enecarboxylic acid]
Reduction of human lymphocyte cell proliferation [1]: Reduction of human lymphocyte cell proliferation

COc1cccc(-c2ccc(NC(=O)C3=C(C(=O)O)CCC3)c(F)c2)c1 [Compound 26, 2-((3-fluoro-3′-methoxy-[1,1′-biphenyl]-4-yl)carbamoyl)cyclopent-1-enecarboxylic acid]
IC50 (recombinant murine DHODH): > 1500 nM
IC50 [2]: 4100 nM
% water uptake at 95% r.h. ([3]; 95% r.h.): 0.1%
% water uptake at 85% r.h. ([3]; about 85% r.h.): 0.03%
Peak area ([4]; HPLC after 18 months storage at ambient conditions (20-25° C., 30-60% relative humidity)): >99%
Occurrence of hydrolysis product in HPLC after 18 months storage ([4]; ambient conditions (20-25° C., 30-60% relative humidity), LOD for hydrolysis product: 0.1 μg/ml): Below LOD*

COc1ccccc1-c1cc(F)c(NC(=O)C2=C(C(=O)O)COC2)c(F)c1 [Compound 47, 4-((3,5-difluoro-2′-methoxy-[1,1′-biphenyl]-4-yl)carbamoyl)-2,5-dihydrofuran-3-carboxylic acid]
IC50 (recombinant human DHODH): < 800 nM
IC50 (recombinant murine DHODH): > 1500 nM
IC50 (DHODH): < 800 nM
